Data as given in patent US20080293711A1 (priority 2007, published 2008).
pIC50: −log10 of the molar value.

Assays:
T-tropic HIV = assay: Phenoscreen assay: inhibition of cellular entry of HIV (luciferase-tagged test vector, target host cells); format: cell-based; details: Human immunodeficiency virus 1, read-out: IC50 value for viral entry inhibition
Experimental: A selected set of compounds are tested for their ability to inhibit the cellular entry of T-tropic HIV. The assay for this inhibition was carried out by Monogram Biosciences, Inc. using their well established Phenoscreen™ assay. Briefly, HIV strains of interest are tagged with a luciferase indicator gene to create an appropriate test vector. The test vector is amplified through transfection and the resulting virus is incubated in the presence of target host cells where intracellular florescence activity then becomes a measure of infection. Amplified virus is exposed to target host cells in the presence of a range of test drug concentrations to determine IC50 measurements of entry inhibition. A modification of this test is further reapplied as a novel drug assay used in partnership with a number of pharmaceutical companies to test the effectiveness of novel entry inhibitors that target specific chemokines. It can used to detect activity against T-tropic, M-tropic, and dual-tropic viruses and Monogram Biosciences has a large bank of over 10,000 different virus strains to ultimately assess the range of applicability of our chemokine modulators. Certain compounds are tested to establish efficacy in a number of viral strains.

[1] = in vivo; cited from earlier work

Compound	pIC50 (T-tropic HIV)	side effect in clinical study [1]
O=C(NCc1ccccc1)c1ccc(C(=O)NNc2ccccc2)cc1	≥ 5.00	–
O=C(NCc1ccc(C(=O)N(Cc2ccccc2)N2CCOCC2)cc1)c1cccs1 [A, N-(4-(benzyl(morpholino)carbamoyl)benzyl)thiophene-2-carboxamide]	≥ 5.00	–
O=C(NNc1ccc(C(F)(F)F)cc1)c1ccc(CNCc2ccccc2)cc1 [AA, 4-((benzylamino)methyl)-N′-(4-(trifluoromethyl)phenyl)benzohydrazide]	≥ 5.00	–
N#Cc1ccc(NNC(=O)c2ccc(CNCc3ccccc3)cc2)cc1 [AB, 4-((benzylamino)methyl)-N′-(4-cyanophenyl)benzohydrazide]	≥ 5.00	–
O=C(NNc1ccc(F)cc1F)c1ccc(CNCc2ccccc2)cc1 [AF, 4-((benzylamino)methyl)-N1′-(2,4-difluorophenyl)benzohydrazide]	≥ 5.00	–
O=C(NNc1ccccc1)c1ccc(CNCc2ccccn2)cc1 [AL, N′-phenyl-4-((pyridin-2-ylmethylamino)methyl)benzohydrazide]	≥ 5.00	–
c1cc(CN2CCCNCCNCCCNCC2)ccc1CN1CCCNCCNCCCNCC1 [AMD3100]	–	cardiac-related side effect
O=C(NCc1ccccn1)c1ccc(C(=O)NNc2ccccc2)cc1 [AO, 4-(2-phenylhydrazinecarbonyl)-N-(pyridin-2-ylmethyl)benzamide]	≥ 5.00	–
C[C@H](NC(=O)NCc1ccc(C(=O)NNc2ccccc2)cc1)c1cccc2ccccc12 [BE, (S)-4-((3-(1-(naphthalen-1-yl)ethyl)ureido)methyl)-N′-phenylbenzohydrazide]	≥ 5.00	–
O=C(NNc1ccccc1)c1ccc(CNCc2ccccc2)cc1 [Z, 4-((benzylamino)methyl)-N′-phenylbenzohydrazide]	≥ 5.00	–
